Results: PMC10028261, “Structural and ligand binding analysis of the pet allergens Can f 1 and Fel d 7” (Frontiers in Allergy, 2023)

What was measured:
Assay type in all cases: binding
Fel d 7 [1] = biological target: T1, Fel d 7 (Felis catus, UniProt E5D2Z5); experiment: ANS displacement assay; conditions: 2 uM ANS, 0.2 mg/ml protein, RT, 1 h; fatty acid 10 uM (Methods) or 1 uM (Figure 4 legend)
T1 construct: wild-type, signal peptide absent, aa 27-170 for the crystal construct; GST tag cut with TEV; E. coli BL21(DE3)
T1 sequence (E5D2Z5 27-170): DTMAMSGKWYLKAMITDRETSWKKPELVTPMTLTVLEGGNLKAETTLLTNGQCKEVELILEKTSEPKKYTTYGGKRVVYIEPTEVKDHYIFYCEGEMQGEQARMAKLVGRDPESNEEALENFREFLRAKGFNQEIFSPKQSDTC

Can f 1 [2] = biological target: T2, Can f 1 (Canis lupus, UniProt O18873); experiment: ANS displacement assay; conditions: 2 uM ANS, 0.2 mg/ml protein, RT, 1 h; fatty acid 10 uM (Methods) or 1 uM (Figure 4 legend)
T2 construct: wild-type (C118S gene reverted to Cys118), signal peptide absent, borders aa 27-171 for the C118S crystal construct; 6His-GST tag cut with TEV; E. coli BL21(DE3)
T2 sequence (O18873 27-171): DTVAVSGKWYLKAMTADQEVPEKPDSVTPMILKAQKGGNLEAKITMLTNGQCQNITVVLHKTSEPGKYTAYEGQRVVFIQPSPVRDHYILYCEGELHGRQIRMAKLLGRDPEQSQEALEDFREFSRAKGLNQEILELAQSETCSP

Can f 1 [3] = biological target: T2, Can f 1; experiment: […]-methyl HSQC NMR stoichiometry; conditions: labelled compound (methyl-13C-oleate); annealed at 80°C, excess lipid removed, PBS; cholate extraction
Fel d 7 [4] = biological target: T1, Fel d 7; experiment: […]-methyl HSQC NMR stoichiometry; conditions: labelled compound (methyl-13C-oleate); annealed at 80°C, excess lipid removed, PBS; cholate extraction

SMILES | % fluorescence reduction (Fel d 7 [1]) [%] | % fluorescence reduction (Can f 1 [2]) [%] | stoichiometry (oleate:protein) (Can f 1 [3]) | stoichiometry (oleate:protein) (Fel d 7 [4])
CC/C=C\C/C=C\C/C=C\CCCCCCCC(=O)N[C@@H](Cc1ccc(O)cc1)C(=O)O [A2, N-(α-Linolenoyl) tyrosine] | > 50 | > 50 | – | –
CCCCCCCC/C=C\CCCCCCCC(=O)N[C@@H](CO)C(=O)O [A4, N-Oleoyl-L-serine] | > 50 | > 50 | – | –
CCCCC/C=C\C/C=C\CCCCCCCC(=O)NCC(=O)O [D10, Linoleoyl glycine] | > 50 | > 50 | – | –
CCCCCCCC/C=C\CCCCCCCC(=O)O [oleic acid] | – | – | 2:1 | 2:1
